# Results taken from patent US9303036B2, “Crystalline asenapine hydrochloride salt forms” (Sandoz AG, priority 2011, dated 2016).
# Counter-ions that a name gives are not always drawn.
# Assays:
# [1] = Aqueous solubility by suspension equilibration in water, concentration in filtrate by HPLC; format: physicochemical
# Procedure: The aqueous solubility was determined after 40 hours of suspension equilibration at 25° C. Thereafter, the suspension was filtered and the concentration in the liquid phase was determined by HPLC. The excellent solubility of the Asenapine hydrochloride dihydrate of the invention may render the salt to an excellent alternative to known salts of Asenapine, especially for a fast dissolving formulation.
# An HPLC instrument from TSP (UV3000, AS3000, P4000, SCM1000 using software version 4.1) was used in combination with a column from Waters (XTerra MS 018, 4.6×100 mm, 5 μm (CC01A)). The mobile phase A was H2O/ACN 95:5 with 0.1% TFA, and mobile phase B was H2O/ACN 5:95 with 0.1% TFA. The reference concentration was 0.09 mg/mL. The Asenapine peak appeared at a retention time.
# 4.0-4.1 min. The method was isocratic with 70% mobile phase A and 30% mobile phase B at 0 min and after 10 min at a flow of 1.0 mL/min. The injection volume was 10 μL and the detection wavelength 202 nm.
# The aqueous solubility of Asenapine salts is determined in water after 48 hours of suspension equilibration at 25° C. 200 mg of Asenapine hydrochloride is suspended in 1.5 ml of bidistilled water and the resulting suspension is placed on a laboratory shaker at 500 rpm. Thereafter, the suspension is filtered and the concentration in the liquid phase was determined by HPLC as described above. […]
# [2] = Water uptake by dynamic vapor absorption; format: physicochemical
# Procedure: Asenapine HCl dihydrate of the invention can absorb about 1.5% of additional water at 95% relative humidity at 25° C. and most of the water uptake occurs above 80% relative humidity as shown by dynamic vapor absorption.
# [3] = Solubility of Asenapine maleate in saturated solution (Funke et al., literature); format: physicochemical; conditions: water (saturated solution), thermodynamic from solid, converted from the maleate salt value at 23° C., pH=4.4, read-out: free base solubility
# Source text: Certain crystalline addition salts of Asenapine, for instance a fumarate (EP 0569096), salts with sulfonic acids (WO 98/54186), and a pamoate or hemipamoate salt (EP 0569096), are described in the literature. The pamoate salt is disclosed to be amorphous and the hemipamoate salt is a mixture of amorphous and crystalline phase, wherein the palmitate is described as oil. The marketed form is the maleate salt, which is disclosed to exist in polymorphic forms (WO 2006/106135). The known Asenapine salts have a low solubility in water.
# [4] = 23° C., pH=4.4; cited from earlier work
"solubility at 2 days ([1]; pH 4, thermodynamic from solid, 25° C., 600 rpm, two days of equilibration, at a pH of 4.0, read-out: aqueous solubility (concentration of Asenapine in the filtered solution by HPLC)) [mg/mL]","solubility at 40 h ([1]; thermodynamic from solid, at 25° C., calculated as free base, after 40 hours of suspension equilibration, HPLC) [mg/mL]","additional water absorbed ([2]; 95% relative humidity at 25° C., most uptake above 80% relative humidity)","hygroscopicity ([2]; dynamic vapor absorption, 25° C.)",solubility [3] [mg/mL],Structure (SMILES),concentration of saturated solution [4] [µg/mL]
24.2,24.2,about 1.5%,"not, or only very slightly hygroscopic",–,"CN1C[C@H]2c3ccccc3Oc3ccc(Cl)cc3[C@@H]2C1 (relative stereo) [Asenapine HCl dihydrate, trans-5-chloro-2-methyl-2,3,3a,12b-tetrahydro-1H-dibenz[2,3:6,7]oxepino[4,5-c]pyrrole]",–
–,–,–,–,~4.1,"CN1C[C@@H]2c3ccccc3Oc3ccc(Cl)cc3[C@H]2C1 (relative stereo) [maleate salt of Asenapine, trans-5-chloro-2-methyl-2,3,3a,12b-tetrahydro-1H-dibenz[2,3:6,7]oxepino[4,5-c]pyrrole]",5800
